This note sets out measurements from patent US20230174608A1, “Polypeptide Derivative Having Dual Receptor Agonistic Action and Use Thereof” (TIANJIN INSTITUTE OF PHARMACEUTICAL RESEARCH CO., LTD., priority 2020, published 2023).

The target of experiment [1] is T1, GCGR (Homo sapiens, UniProt P47871).
T1 construct: expressed in transfected cells
Description: GC receptor-mediated cAMP production in vitro. In kind it is cell-based. As to conditions: HEK293 cell line stably expressing GCGR. Here is the method:
(§1) HEK293 cell line stably expressing GLP-1R or GCGR was used for screening GLP-1R and GCGR agonist.
(§2) Preparation of test sample: each compound was prepared into 100 μM stock solution, and then gradually diluted to working concentrations of 1 μM, 100 nM, 10 nM, 1 nM, 10^−1 nM, 10^−2 nM, 10^−3 nM, and H2O.
(§3) 1) Each compound to be tested was mixed with a serum-free medium (containing 0.1% BSA and 0.5 mM IBMX) to obtain a solution at a concentration 2 times the working concentration.
(§4) 2) The cells were digested, suspended in a serum-free medium (containing 0.5 mM IBMX), counted, and placed in a 384-well plate at a density of 1,000 cells/5 μL/well, then 5 μL of the testing compound was added, and the plate was placed in dark for reaction for 30 min.
(§5) 3) After the reaction was completed, a substrate for detecting cAMP was added, and the plate was placed in dark for reaction at the room temperature for 60 min.
(§6) 4) After the reaction was completed, the plate was placed on the Envision2104 multifunctional microplate reader for detection, and the ratio of optical density (OD) values at 665 nm and 615 nm were read out.
Background: cAMP levels reflect the balance of adenylyl cyclase and phosphodiesterase activity.

Experiment [2] concerns the target T2, GLP-1R (Homo sapiens, UniProt P43220).
T2 construct: expressed in transfected cells
Put plainly: GLP-1 receptor-mediated cAMP production in vitro. As to conditions: HEK293 cell line stably expressing GLP-1R. In kind it is cell-based. Here is the method:
as §1, §2, §3, §4, §5, §6

Experiment [3] has as its system glucose loaded normal mice. Put plainly: Glucose loading test on normal mice after single administration. In kind it is in vivo, Kunming mice. As to conditions: for Blood glucose reduction rate (%) / Blood glucose level after glucose loading: 30 nmol/kg single dose; for Blood glucose reduction rate (%): after glucose loading, versus model control group; for Blood glucose level after glucose loading: glucose 2.5 g/kg intragastric 60 min after administration, measured 30 min after loading; for Blood glucose level after glucose loading / Fasting blood glucose level: n=5; for Fasting blood glucose level: normal mice fasted 6 h, 30 nmol/kg group. As for the experimental part:
The hypoglycemic action of each compound of Example 1 was assessed by a glucose loading test on normal mice after single administration.
Method: Kunming mice (male, with a weight of 20-22 g) were acclimated in a barrier environment animal room for 3 days, divided into a blank control group, a model control group, a positive control group, and test compound groups, 5 mice in each group, and fasted for 6 h. Saline was administered to each mouse in the blank control group and the model control group, the compounds and a positive control drug were respectively administered to each mouse in the test compound groups and the positive control group at a dose of 30 nmol/kg, and the positive control drug was semaglutide. 60 min after administration, glucose was intragastrically administered to each mouse in the model control group, the positive control group, and the test compound groups at a dose of 2.5 g/kg (0.01 mL·g^−1 weight), distilled water was administered to each mouse in the blank control group, and blood glucose levels were determined 30 min after glucose loading.

SMILES strings stand for the structures. *1 amine or outer side, *2 acyl side, *3 side chain or, on linkers, in order; H or OH if unused. Where a SMILES comes first, the peptide text is derived from it. Side-chain parts run from the residue outwards. [ ]: non-standard residue; d: D form. The star is where a group is joined. γGlu = O=C(O)[C@H](CCC(=O)[*:2])N[*:1]; Palmitoyl = CCCCCCCCCCCCCCCC(=O)*; AEEA = NCCOCCOCC(=O)O; Aib = CC(C)(N)C(=O)O

T2 sequence (P43220 24-463, species assumed): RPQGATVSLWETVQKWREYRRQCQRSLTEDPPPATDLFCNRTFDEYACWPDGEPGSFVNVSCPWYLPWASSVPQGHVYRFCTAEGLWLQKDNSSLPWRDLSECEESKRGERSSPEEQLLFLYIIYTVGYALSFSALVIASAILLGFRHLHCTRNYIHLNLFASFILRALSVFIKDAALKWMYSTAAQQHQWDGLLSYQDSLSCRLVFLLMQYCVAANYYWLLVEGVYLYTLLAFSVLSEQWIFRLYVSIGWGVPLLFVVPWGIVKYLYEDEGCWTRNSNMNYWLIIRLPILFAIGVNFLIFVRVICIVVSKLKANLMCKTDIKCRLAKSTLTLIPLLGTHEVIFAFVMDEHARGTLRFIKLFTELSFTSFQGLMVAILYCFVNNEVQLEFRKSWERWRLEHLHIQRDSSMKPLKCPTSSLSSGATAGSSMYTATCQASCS
T1 sequence (P47871 26-477, species assumed): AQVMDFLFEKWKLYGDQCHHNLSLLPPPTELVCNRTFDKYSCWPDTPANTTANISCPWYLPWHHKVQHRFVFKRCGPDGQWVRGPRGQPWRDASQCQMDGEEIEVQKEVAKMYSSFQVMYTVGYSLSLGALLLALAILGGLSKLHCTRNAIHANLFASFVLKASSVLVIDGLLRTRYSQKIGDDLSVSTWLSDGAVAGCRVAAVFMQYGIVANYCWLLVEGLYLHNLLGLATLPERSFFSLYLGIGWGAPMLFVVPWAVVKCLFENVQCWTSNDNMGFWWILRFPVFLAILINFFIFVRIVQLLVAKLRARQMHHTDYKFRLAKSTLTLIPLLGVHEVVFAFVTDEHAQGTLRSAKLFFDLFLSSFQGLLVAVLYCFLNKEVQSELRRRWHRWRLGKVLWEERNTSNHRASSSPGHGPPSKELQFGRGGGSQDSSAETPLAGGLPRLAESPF

The term EC50 denotes the concentration that produces a half-maximal response. The low end stands for an effect from little substance, the high end for a need for much substance. Consider `CCCCCCCCCCCCCCCC(=O)N[C@@H](CCC(=O)NCCCC[C@H](NC(=O)[C@H](C)NC(=O)[C@H](C)NC(=O)[C@H](CCCNC(=N)N)NC(=O)[C@H](CCC(=O)O)NC(=O)[C@H](CCC(=O)O)NC(=O)[C@H](CC(C)C)NC(=O)[C@H](Cc1ccc(O)cc1)NC(=O)[C@H](CCCCN)NC(=O)[C@H](CO)NC(=O)[C@H](Cc1ccc(O)cc1)NC(=O)[C@H](CC(=O)O)NC(=O)[C@H](CO)NC(=O)[C@@H](NC(=O)[C@H](Cc1ccccc1)NC(=O)[C@@H](NC(=O)CNC(=O)[C@H](CCC(N)=O)NC(=O)C(C)(C)NC(=O)[C@@H](N)Cc1c[nH]cn1)[C@@H](C)O)[C@@H](C)O)C(=O)N[C@@H](CCC(=O)O)C(=O)N[C@@H](Cc1ccccc1)C(=O)N[C@H](C(=O)N[C@@H](C)C(=O)N[C@@H](Cc1c[nH]c2ccccc12)C(=O)N[C@@H](CC(C)C)C(=O)N[C@@H](CCC(=O)O)C(=O)N[C@@H](CO)C(=O)NCC(=O)NCC(N)=O)[C@@H](C)CC)C(=O)O` [dgc008] (HELM PEPTIDE1{H.[Aib].Q.G.T.F.T.S.D.Y.S.K.Y.L.E.E.R.A.A.K.E.F.I.A.W.L.E.S.G.G.[am]}|PEPTIDE2{[CCCCCCCCCCCCCCCC(=O)[*:2]].[gGlu]}$PEPTIDE1,PEPTIDE2,20:R3-2:R2$$$V2.0; N-terminus assumed), for which the EC50 in experiment [1] amounted to 2.03 nM. Also, the response in experiment [2] was half-maximal at 0.742 nM (EC50). Besides, in experiment [3], the “Blood glucose reduction rate (%)” value was 48.70%, the “Blood glucose level after glucose loading” value amounted to 8.72 ± 1.99 mmol/L and the “Fasting blood glucose level” value is reported as 3.64 ± 1.00 mmol/L.

For `CCCCCCCCCCCCCCCC(=O)N[C@@H](CCC(=O)N[C@@H](CCC(=O)NCCCC[C@H](NC(=O)[C@H](C)NC(=O)[C@H](C)NC(=O)[C@H](CCCNC(=N)N)NC(=O)[C@H](CCC(=O)O)NC(=O)[C@H](CC(=O)O)NC(=O)[C@H](CC(C)C)NC(=O)[C@H](Cc1ccc(O)cc1)NC(=O)[C@H](CCCCN)NC(=O)[C@H](CO)NC(=O)[C@H](Cc1ccc(O)cc1)NC(=O)[C@H](CC(=O)O)NC(=O)[C@H](CO)NC(=O)[C@@H](NC(=O)[C@H](Cc1ccccc1)NC(=O)[C@@H](NC(=O)CNC(=O)[C@H](CCC(N)=O)NC(=O)C(C)(C)NC(=O)[C@@H](N)Cc1c[nH]cn1)[C@@H](C)O)[C@@H](C)O)C(=O)N[C@@H](CCC(=O)O)C(=O)N[C@@H](Cc1ccccc1)C(=O)N[C@H](C(=O)N[C@@H](C)C(=O)N[C@@H](Cc1c[nH]c2ccccc12)C(=O)N[C@@H](CC(C)C)C(=O)N[C@@H](CCC(=O)O)C(=O)NCC(=O)NCC(N)=O)[C@@H](C)CC)C(=O)O)C(=O)O` [dgc013] (HELM PEPTIDE1{H.[Aib].Q.G.T.F.T.S.D.Y.S.K.Y.L.D.E.R.A.A.K.E.F.I.A.W.L.E.G.G.[am]}|PEPTIDE2{[CCCCCCCCCCCCCCCC(=O)[*:2]].[gGlu].[gGlu]}$PEPTIDE1,PEPTIDE2,20:R3-3:R2$$$V2.0; N-terminus assumed), the EC50 in experiment [1] is 1.99 nM. Further, the EC50 in experiment [2] was determined as 0.319 nM. Besides, in experiment [3], the “Blood glucose reduction rate (%)” value is listed as 45.53%, the “Blood glucose level after glucose loading” value is listed as 9.26 ± 1.76 mmol/L and the “Fasting blood glucose level” value is 3.92 ± 0.51 mmol/L.

Turning to `CCCCCCCCCCCCCCCC(=O)N[C@@H](CCC(=O)NCCCC[C@H](NC(=O)[C@H](C)NC(=O)[C@H](C)NC(=O)[C@H](CCCNC(=N)N)NC(=O)[C@H](CCC(=O)O)NC(=O)[C@H](CCC(=O)O)NC(=O)[C@H](CC(C)C)NC(=O)[C@H](Cc1ccc(O)cc1)NC(=O)[C@H](CCCCN)NC(=O)[C@H](CO)NC(=O)[C@H](Cc1ccc(O)cc1)NC(=O)[C@H](CC(=O)O)NC(=O)[C@H](CO)NC(=O)[C@@H](NC(=O)[C@H](Cc1ccccc1)NC(=O)[C@@H](NC(=O)CNC(=O)[C@H](CCC(N)=O)NC(=O)C(C)(C)NC(=O)[C@@H](N)Cc1c[nH]cn1)[C@@H](C)O)[C@@H](C)O)C(=O)N[C@@H](CCC(=O)O)C(=O)N[C@@H](Cc1ccccc1)C(=O)N[C@H](C(=O)N[C@@H](C)C(=O)N[C@@H](Cc1c[nH]c2ccccc12)C(=O)N[C@@H](CC(C)C)C(=O)N[C@@H](CCC(=O)O)C(=O)NCC(=O)NCC(N)=O)[C@@H](C)CC)C(=O)O` [dgc015] (HELM PEPTIDE1{H.[Aib].Q.G.T.F.T.S.D.Y.S.K.Y.L.E.E.R.A.A.K.E.F.I.A.W.L.E.G.G.[am]}|PEPTIDE2{[CCCCCCCCCCCCCCCC(=O)[*:2]].[gGlu]}$PEPTIDE1,PEPTIDE2,20:R3-2:R2$$$V2.0; N-terminus assumed), the 50% effective concentration (EC50) in experiment [1] stood at 1.53 nM; in experiment [2] it was 0.899 nM.

For `CCCCCCCCCCCCCCCC(=O)N[C@@H](CCC(=O)NCCCC[C@H](NC(=O)[C@H](C)NC(=O)[C@H](C)NC(=O)[C@H](CCCNC(=N)N)NC(=O)[C@H](CCC(=O)O)NC(=O)[C@H](CC(=O)O)NC(=O)[C@H](CC(C)C)NC(=O)[C@H](Cc1ccc(O)cc1)NC(=O)[C@H](CCCCN)NC(=O)[C@H](CO)NC(=O)[C@H](Cc1ccc(O)cc1)NC(=O)[C@H](CC(=O)O)NC(=O)[C@H](CO)NC(=O)[C@@H](NC(=O)[C@H](Cc1ccccc1)NC(=O)[C@@H](NC(=O)CNC(=O)[C@H](CCC(N)=O)NC(=O)C(C)(C)NC(=O)[C@@H](N)Cc1c[nH]cn1)[C@@H](C)O)[C@@H](C)O)C(=O)N[C@@H](CCC(=O)O)C(=O)N[C@@H](Cc1ccccc1)C(=O)N[C@H](C(=O)N[C@@H](C)C(=O)N[C@@H](Cc1c[nH]c2ccccc12)C(=O)N[C@@H](CC(C)C)C(=O)N[C@@H](CCC(=O)O)C(=O)NCC(=O)N[C@@H](CCC(=O)O)C(=O)NCC(N)=O)[C@@H](C)CC)C(=O)O` [dgc018] (HELM PEPTIDE1{H.[Aib].Q.G.T.F.T.S.D.Y.S.K.Y.L.D.E.R.A.A.K.E.F.I.A.W.L.E.G.E.G.[am]}|PEPTIDE2{[CCCCCCCCCCCCCCCC(=O)[*:2]].[gGlu]}$PEPTIDE1,PEPTIDE2,20:R3-2:R2$$$V2.0; N-terminus assumed), the EC50 in experiment [1] turned out to be 1.3 nM; in experiment [2], 0.401 nM.

As for `CCCCCCCCCCCCCCCC(=O)N[C@@H](CCC(=O)NCCCC[C@H](NC(=O)[C@H](C)NC(=O)[C@H](C)NC(=O)[C@H](CCCNC(=N)N)NC(=O)[C@H](CCC(=O)O)NC(=O)[C@H](CCC(=O)O)NC(=O)[C@H](CC(C)C)NC(=O)[C@H](Cc1ccc(O)cc1)NC(=O)[C@H](CCCCN)NC(=O)[C@H](CO)NC(=O)[C@H](Cc1ccc(O)cc1)NC(=O)[C@H](CC(=O)O)NC(=O)[C@H](CO)NC(=O)[C@@H](NC(=O)[C@H](Cc1ccccc1)NC(=O)[C@@H](NC(=O)CNC(=O)[C@H](CCC(N)=O)NC(=O)C(C)(C)NC(=O)[C@@H](N)Cc1c[nH]cn1)[C@@H](C)O)[C@@H](C)O)C(=O)N[C@@H](CCC(=O)O)C(=O)N[C@@H](Cc1ccccc1)C(=O)N[C@H](C(=O)N[C@@H](C)C(=O)N[C@@H](Cc1c[nH]c2ccccc12)C(=O)N[C@@H](CC(C)C)C(=O)N[C@@H](CCC(=O)O)C(=O)NCC(=O)N[C@@H](CCC(=O)O)C(=O)NCC(N)=O)[C@@H](C)CC)C(=O)O` [dgc019] (HELM PEPTIDE1{H.[Aib].Q.G.T.F.T.S.D.Y.S.K.Y.L.E.E.R.A.A.K.E.F.I.A.W.L.E.G.E.G.[am]}|PEPTIDE2{[CCCCCCCCCCCCCCCC(=O)[*:2]].[gGlu]}$PEPTIDE1,PEPTIDE2,20:R3-2:R2$$$V2.0; N-terminus assumed), the EC50 in experiment [1] came to 1.83 nM; in experiment [2] it was 0.792 nM.

As to `CCCCCCCCCCCCCCCC(=O)N[C@@H](CCC(=O)NCCOCCOCC(=O)NCCOCCOCC(=O)NCCCC[C@H](NC(=O)[C@H](C)NC(=O)[C@H](C)NC(=O)[C@H](CCCNC(=N)N)NC(=O)[C@H](CCC(=O)O)NC(=O)[C@H](CCC(=O)O)NC(=O)[C@H](CC(C)C)NC(=O)[C@H](Cc1ccc(O)cc1)NC(=O)[C@H](CCCCN)NC(=O)[C@H](CO)NC(=O)[C@H](Cc1ccc(O)cc1)NC(=O)[C@H](CC(=O)O)NC(=O)[C@H](CO)NC(=O)[C@@H](NC(=O)[C@H](Cc1ccccc1)NC(=O)[C@@H](NC(=O)CNC(=O)[C@H](CCC(N)=O)NC(=O)C(C)(C)NC(=O)[C@@H](N)Cc1c[nH]cn1)[C@@H](C)O)[C@@H](C)O)C(=O)N[C@@H](CCC(=O)O)C(=O)N[C@@H](Cc1ccccc1)C(=O)N[C@H](C(=O)N[C@@H](C)C(=O)N[C@@H](Cc1c[nH]c2ccccc12)C(=O)N[C@@H](CC(C)C)C(=O)N[C@@H](CCC(=O)O)C(=O)NCC(=O)N[C@@H](CCC(=O)O)C(=O)NCC(N)=O)[C@@H](C)CC)C(=O)O` [dgc021] (H-H[Aib]QGTFTSDYSKYLEERAAK([AEEA-AEEA-γGlu-Palmitoyl])EFIAWLEGEG-NH2; N-terminus assumed), the EC50 stood at 3.93 nM in experiment [1] and 0.382 nM in experiment [2].
